Test results published in PubChem BioAssay AID1963841 (Molecular Pharmacology Branch, DTP, NCI, 2024).

Tested on: 439559-082-T-J2-PDC spheroid viability
Assay: Anticancer human tumor 439559-082-T-J2-PDC patient-derived colon adenocarcinoma cell line growth inhibition [POLQ]
Settings: spheroids with HUVEC and MSC; for IC50: curve of first compound; for viability, T/C: stronger effect = lower value
Outline: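 Three-cell-type spheroids modelling solid tumor plus stroma served as the readout system; POL inhibitors were tested individually and in combination, concentration ranges set by clinical Cmax where known.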

[1] = second compound 0.0316 µM, first compound 0.0316 µM
[2] = second compound 0.0316 µM, first compound 0.1 µM
[3] = second compound 0.0316 µM, first compound 0.316 µM
[4] = second compound 0.0316 µM, first compound 1 µM
[5] = second compound 0.0316 µM, first compound 3.16 µM
[6] = second compound 0.0316 µM, first compound 10 µM
[7] = second compound 0.1 µM, first compound 0.0316 µM
[8] = second compound 0.1 µM, first compound 0.1 µM
[9] = second compound 0.1 µM, first compound 0.316 µM
[10] = second compound 0.1 µM, first compound 1 µM
[11] = second compound 0.1 µM, first compound 3.16 µM
[12] = second compound 0.1 µM, first compound 10 µM
[13] = second compound 0.316 µM, first compound 0.0316 µM
[14] = second compound 0.316 µM, first compound 0.1 µM
[15] = second compound 0.316 µM, first compound 0.316 µM
[16] = second compound 0.316 µM, first compound 1 µM
[17] = second compound 0.316 µM, first compound 3.16 µM
[18] = second compound 0.316 µM, first compound 10 µM
[19] = second compound 1 µM, first compound 0.0316 µM
[20] = second compound 1 µM, first compound 0.1 µM
[21] = second compound 1 µM, first compound 0.316 µM
[22] = second compound 1 µM, first compound 1 µM
[23] = second compound 1 µM, first compound 3.16 µM
[24] = second compound 1 µM, first compound 10 µM
[25] = second compound 3.16 µM, first compound 0.0316 µM
[26] = second compound 3.16 µM, first compound 0.1 µM
[27] = second compound 3.16 µM, first compound 0.316 µM
[28] = second compound 3.16 µM, first compound 1 µM
[29] = second compound 3.16 µM, first compound 3.16 µM
[30] = second compound 3.16 µM, first compound 10 µM
[31] = second compound 10 µM, first compound 0.0316 µM
[32] = second compound 10 µM, first compound 0.1 µM
[33] = second compound 10 µM, first compound 0.316 µM
[34] = second compound 10 µM, first compound 1 µM
[35] = second compound 10 µM, first compound 3.16 µM
[36] = second compound 10 µM, first compound 10 µM
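Further: spheroids exposed to compounds for seven days before readout.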
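Wherever viability, T/C is given: 100% = DMSO vehicle control viability.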

CCc1cc2c(N3CCc4c(cc(Cn5ccnc5)cc4-c4cn(C)nc4C(F)(F)F)C3=O)ccnc2c(OC)n1 + COC1C(OC(N)=O)C(O)C(Oc2ccc3c(O)c(NC(=O)c4ccc(O)c(CC=C(C)C)c4)c(=O)oc3c2C)OC1(C)C
IC50 (second compound 0.0316 µM): > 10 µM
IC50 (second compound 0.1 µM): > 10 µM
IC50 (second compound 0.316 µM): > 10 µM
IC50 (second compound 1 µM): > 10 µM
IC50 (second compound 3.16 µM): > 10 µM
IC50 (second compound 10 µM): > 10 µM
viability, T/C [1]: 95.2%
viability, T/C [2]: 104%
viability, T/C [3]: 97.5%
viability, T/C [4]: 95.2%
viability, T/C [5]: 91.6%
viability, T/C [6]: 95.3%
viability, T/C [7]: 100%
viability, T/C [8]: 103%
viability, T/C [9]: 96.1%
viability, T/C [10]: 90.7%
viability, T/C [11]: 99.2%
viability, T/C [12]: 95.2%
viability, T/C [13]: 107%
viability, T/C [14]: 107%
viability, T/C [15]: 101%
viability, T/C [16]: 109%
viability, T/C [17]: 91.5%
viability, T/C [18]: 90.3%
viability, T/C [19]: 110%
viability, T/C [20]: 106%
viability, T/C [21]: 99.4%
viability, T/C [22]: 92.9%
viability, T/C [23]: 93.1%
viability, T/C [24]: 87.6%
viability, T/C [25]: 99.6%
viability, T/C [26]: 109%
viability, T/C [27]: 99.4%
viability, T/C [28]: 92%
viability, T/C [29]: 93%
viability, T/C [30]: 89.6%
viability, T/C [31]: 106%
viability, T/C [32]: 93.7%
viability, T/C [33]: 99.1%
viability, T/C [34]: 101%
viability, T/C [35]: 102%
viability, T/C [36]: 94.5%

COc1cc2cc(C(=O)CCC(=O)O)sc2cc1OC + COC1C(OC(N)=O)C(O)C(Oc2ccc3c(O)c(NC(=O)c4ccc(O)c(CC=C(C)C)c4)c(=O)oc3c2C)OC1(C)C
IC50 (second compound 0.0316 µM): > 10 µM
IC50 (second compound 0.1 µM): > 10 µM
IC50 (second compound 0.316 µM): > 10 µM
IC50 (second compound 1 µM): > 10 µM
IC50 (second compound 3.16 µM): > 10 µM
IC50 (second compound 10 µM): > 10 µM
viability, T/C [1]: 94%
viability, T/C [2]: 96.2%
viability, T/C [3]: 90.1%
viability, T/C [4]: 92.3%
viability, T/C [5]: 100%
viability, T/C [6]: 95.2%
viability, T/C [7]: 94.1%
viability, T/C [8]: 103%
viability, T/C [9]: 103%
viability, T/C [10]: 95.7%
viability, T/C [11]: 111%
viability, T/C [12]: 98.1%
viability, T/C [13]: 98.6%
viability, T/C [14]: 99.1%
viability, T/C [15]: 96.2%
viability, T/C [16]: 97.8%
viability, T/C [17]: 97.1%
viability, T/C [18]: 93.2%
viability, T/C [19]: 98.1%
viability, T/C [20]: 99.3%
viability, T/C [21]: 98.8%
viability, T/C [22]: 94.7%
viability, T/C [23]: 96.1%
viability, T/C [24]: 91.3%
viability, T/C [25]: 99.1%
viability, T/C [26]: 99.5%
viability, T/C [27]: 84.7%
viability, T/C [28]: 95.6%
viability, T/C [29]: 98%
viability, T/C [30]: 89.5%
viability, T/C [31]: 99%
viability, T/C [32]: 96.9%
viability, T/C [33]: 97.9%
viability, T/C [34]: 95.9%
viability, T/C [35]: 111%
viability, T/C [36]: 89.6%
